Laboratory results as given in US11254644B2, “Inhibitors of alpha-amino-beta-carboxymuconic acid semialdehyde decarboxylase” (TES Pharma S.r.l., priority 2014, dated 2022).

Assays:
[1] = tested on: SOD2 activity in primary murine hepatocytes; experiment: Modulation of SOD2 activity in murine primary hepatocytes; type: cell-based, mouse
Experimental: Primary hepatocytes or AML-12 cells are lysed and total protein concentration is determined using the Bradford assay. SOD2 activity is determined at indicated times after treatment with a compound of Formula (I), Formula (Ia), Formula (Ib), Formula (II), or Formula (III), or a pharmaceutically acceptable salt thereof, using a SOD Assay Kit. Absorbance is determined and results are expressed in U/ml/mg of protein according to the standard curve and measured protein concentration.
Primary hepatocytes were prepared from 8-12-week-old C57BL/6J mice by collagenase perfusion method. […] Cell viability was assessed by the trypan blue method. […]
Primary hepatocytes or AML-12 cells were then lysed in a 20 mM HEPES buffer (Gibco), pH 7.2, containing 1 mM EGTA (Sigma), 210 mM mannitol (Sigma), and 70 mM sucrose (AMRESCO). Total protein concentration was determined using the Bradford assay (BioRad). SOD-2 activity was determined at indicated times after ACMSD inhibitor treatment by the SOD Assay Kit (Cayman Chemical) according to the manufacturer's instructions. […] Absorbance was determined with a Victor X4 multi-label plate reader (Perkin-Elmer) at 450 nm. Results are expressed in U/ml/mg of protein according to the standard curve and measured protein concentration.

[2] = tested on: SIRT1-regulated genes (Pgc1a, Sod1, Sod2) in primary mouse hepatocytes; experiment: RT-qPCR analysis of SIRT1-regulated genes in primary murine hepatocytes; type: cell-based; conditions: 24 hrs, 5 nM-500 nM range
Experimental: (§1) Cells (AML-12, Hepa-1.6, HEK-293, primary human and murine hepatocytes) are treated with different concentrations of a compound of Formula (I), Formula (Ia), Formula (Ib), Formula (II), or Formula (III), or a pharmaceutically acceptable salt thereof and the gene expression of ACMSD, Pgc1a, Sod1, and Sod2 (MnSOD) is determined using RT-qPCR. Total RNA is extracted from cells and the extracted RNA is treated with DNase and used for reverse transcription (RT).
Primary hepatocytes were prepared from 8-12-week-old C57BL/6J mice by collagenase perfusion method. Mouse livers were perfused with Hank's balanced salt solution (HBSS, KCl, 5.4 mM; KH2PO4, 0.45 mM; NaCl, 138 mM; NaHCO3, 4.2 mM; Na2HPO4, 0.34 mM; glucose, 5.5 mM; HEPES, 1 M; EGTA, 50 mM; CaCl2), 50 mM; pH 7.4). Livers were then washed at a rate of 5 ml/min through the portal vein. After washing, livers were perfused with collagenase (0.025%) solution. Cell viability was assessed by the trypan blue method. Isolated primary hepatocytes were plated with DMEM medium (Gibco) including 10% FCS, 10 units per ml penicillin and HEPES for buffering. The cells were maintained in culture at 37° C. in a humidified atmosphere of 5% CO2/95% air. After 6-8 hrs of attachment, this medium was replaced with media containing different concentrations of an ACMSD inhibitor (i.e., Compound 1 or Compound 17) or with the corresponding concentration of DMSO (as a control). Primary hepatocytes were harvested about 24 hrs later if not indicated differently.
(§2) Gene expression of ACMSD and genes known to be regulated by SIRT1, (an enzyme that is strictly NAD^+ dependent) such as Pgc1a, Sod1, Sod2 (MnSOD), were analysed in AML-12 cells, Hepa-1.6 cells and primary murine hepatocytes treated with Compound 1 or 17.
Cells (AML-12, Hepa-1.6, HEK-293, primary human and murine hepatocytes) were treated with different concentrations of Compound 1 or Compound 17. Total RNA was extracted from cells using TRIzol (Invitrogen) according to the manufacturer's instructions. […] 50× diluted cDNA was used for RT-quantitative PCR (RT-qPCR) reactions. […]

[3] = tested on: murine primary hepatocytes; experiment: NAD+ content in murine primary hepatocytes (HPLC, mass spectrometry); type: cell-based, mouse; conditions: 24 hours
Text: NAD^+ is extracted using acidic extraction method and samples are collected and homogenized. After insoluble protein parts are pelleted, the samples are separated by high-performance liquid chromatography (HPLC) and analyzed by mass-spectrometry. The proteins in the pellet are quantified by Bradford assay and are used for normalization.
NAD^+ was extracted using acidic extraction method. Samples were collected and homogenized in 70% ice-cold perchloric acid (HClO4). After insoluble protein parts were pelleted by adding potassium carbonate (K2CO3), the samples were separated by high-performance liquid chromatography (HPLC) and analyzed by mass-spectrometry. The proteins in the pellet were quantified by Bradford assay and were used for normalization.

[4] = biological target: hACMSD (ACMSD1) (Homo sapiens (Human), UniProt Q8TDX5); experiment: Determination of ACMSD1 inhibition, spectrophotometrical in vitro assay; type: biochemical; conditions: HAA concentration of 10 μM
Experimental: The activity of compounds as inhibitors of ACMSD1 is determined in a spectrophotometrical in vitro assay. The pre-assay mixture is incubated and a compound of Formula (I), Formula (Ia), Formula (Ib), Formula (II), or Formula (III), or a pharmaceutically acceptable salt thereof, and ACMSD1 solution is then added. The effect of ACMS concentration on the enzyme activity is investigated by varying 3-hydroxyanthranilic acid (3OH-HA) concentration in the pre-assay mixture. Kinetic parameters are calculated from the initial velocity data using a Lineweaver-Burk plot.
The activity of compounds 1-19 and 21-23 as inhibitors of ACMSD1 was determined by measuring the conversion of 3OH-Anthranilic Acid into product (i.e., ACMS) in a spectrophotometrical in vitro assay.
The pre-assay mixture consisting of 3-hydroxyanthranilic acid (3OH-HA), 3-hydroxyanthranilic acid, 3,4-diOxygenase (HAO), and a dialyzed crude extract of E. coli BL21 (DE3) cells expressing the recombinant enzyme, was incubated at 25° C. with monitoring of the increase in absorbance at 360 nm due to the formation of ACMS from 3OH-HA. After the reaction was completed within ˜2 mins, an aliquot of ACMSD1 solution (prepared and purified from Pichia Pastoris overexpressing the recombinant enzyme) was added, and the decrease in absorbance at 360 nm was followed at 15 second intervals. The effect of ACMS concentration on the enzyme activity was investigated by varying 3OH-HA concentration from 2 to 20 μM. Kinetic parameters were calculated from the initial velocity data by using the Lineweaver-Burk plot.
The rate of the decrease in absorbance caused by ACMSD1 was calculated by subtracting that of the control reaction mixture without ACMSD from that described above. One unit of ACMSD activity was indicated as the amount of enzyme that converts 1 mmol of ACMS per minute at 25° C. The absence or a reduction of ACMSD1 activity (e.g., by using ACMSD inhibitors) results in a slow ACMS-spontaneous degradation (i.e., cyclization to form quinolic acid).
The enzymatic activity was determined at a HAA concentration of 10 μM in the presence of the compounds in Table 1 below. The compounds were tested at the concentration of about 5 μM and 10 μM and the IC50 was calculated for compounds showing inhibitory activity higher than 50%.

[5] = tested on: SIRT1-regulated genes in Hepa-1.6 cells; experiment: RT-qPCR analysis of SIRT1-regulated genes in Hepa-1.6 cells; type: cell-based; conditions: Hepa-1.6 hepatic cell line, 24 hrs
Experimental: as §1, §2
(§3) Cells (AML-12, Hepa-1.6, HEK-293, primary human and murine hepatocytes) were treated with different concentrations of Compound 1 or Compound 17. Total RNA was extracted from cells using TRIzol (Invitrogen) according to the manufacturer's instructions. The RNA was treated with DNase, and 2 μg of RNA was used for reverse transcription (RT). 50× diluted cDNA was used for RT-quantitative PCR (RT-qPCR) reactions. The RT-qPCR reactions were performed using the Light-Cycler system (Roche Applied Science) and a qPCR Supermix (QIAGEN) with the indicated primers. The average of at least three technical repeats was used for each biological data point.

[6] = biological target: ACMSD-1 (Homo sapiens (Human), UniProt Q8TDX5); experiment: ACMSD-1 modulation in HEK293T cells transiently expressing ACMSD; type: cell-based; conditions: about 50 nM to about 5 uM; stimulated 48 hrs to 72 hrs
Experimental: HEK293T cells are seeded and transfected to transiently express ACMSD. […] The amount of the whole protein content in cell lysates is detected by Bradford analysis and used to get the specificity activity of the enzyme normalized in all samples.
HEK293T cells (ATCC) were seeded in six-well plates and transfected using Fugene HD to express transiently ACMSD. […] The amount of the whole protein content in cell lysates was detected by Bradford analysis. This value was used to get the specificity activity of the enzyme normalized in all samples (mU/ml or ΔE/Δt/mg of total protein).

[7] = tested on: SIRT1-regulated genes in AML-12 cells; experiment: RT-qPCR analysis of SIRT1-regulated genes in AML-12 cells; type: cell-based, mouse; conditions: 24 hrs
Experimental: as §1, §2, §3

Sequence of hACMSD (ACMSD1) (Q8TDX5 whole entry): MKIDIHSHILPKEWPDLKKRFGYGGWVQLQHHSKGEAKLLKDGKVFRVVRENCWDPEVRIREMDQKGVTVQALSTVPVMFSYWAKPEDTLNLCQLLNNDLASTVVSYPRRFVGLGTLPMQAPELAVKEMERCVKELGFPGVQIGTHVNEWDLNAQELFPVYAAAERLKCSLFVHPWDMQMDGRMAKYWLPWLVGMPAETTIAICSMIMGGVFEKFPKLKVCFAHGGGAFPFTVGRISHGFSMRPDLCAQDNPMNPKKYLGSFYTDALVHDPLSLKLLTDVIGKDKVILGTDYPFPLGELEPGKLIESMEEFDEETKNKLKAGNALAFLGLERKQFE
Sequence of ACMSD-1 (Q8TDX5 whole entry): as above

Row | Structure (SMILES) | dose at which SOD2 effect reached a maximum [1] | Pgc1a mRNA expression level [2] | Sod1 (Cu-Zn SOD) mRNA expression level [2] | Sod2 (MnSOD) mRNA expression level [2] | lowest concentration with significant effect on NAD+ levels [3] [nM] | IC50 [4] [nM] | Sod2 mRNA levels [5] | ACMSD-1 activity in transfected HEK293T cells [6] | Sod2 mRNA levels [7]
1 | N#Cc1c(-c2cccs2)nc(SCc2cccc(-c3nn[nH]n3)c2)[nH]c1=O [Compound 17] | about 50 nM | dose-dependent increase | but not Sod1 | dose-dependent increase | ≤ 5 | 5 | – | – | –
2 | N#Cc1c(-c2ccccc2)nc(SCc2cccc(C(=O)O)c2)[nH]c1=O [Compound 1] | – | – | – | – | – | 50 | increased in a dose-dependent manner | inhibited ACMSD-1 activity, in a dose dependent manner | increased in a dose-dependent manner
